Measured values from US20060247231A1, “Amide and ester matrix metalloproteinase inhibitors” (Warner-Lambert Company LLC, priority 2003, published 2006).
pIC50: −log10 of the molar value.

Assays:
Assay type in all cases: biochemical
[1] = target: MMP-3CD (catalytic domain of stromelysin) (Homo sapiens, UniProt P08254); assay: MMP-3 catalytic domain inhibition (Biological Methods 1, 2, or 5)
Experimental: (§1) Thiopeptolide substrates show virtually no decomposition or hydrolysis at or below neutral pH in the absence of a matrix metalloproteinase enzyme. A typical thiopeptolide substrate commonly utilized for assays is Ac-Pro-Leu-Gly-thioester-Leu-Leu-Gly-OEt. A 100 μL assay mixture will contain a suitable amount of the MMP enzyme such as an amount described in Ye Qi-Zhuang, et al., 1996, supra, 50 mM of N-2-hydroxyethylpiperazine-N′-2-ethanesulfonic acid buffer (“HEPES,” pH 7.0), 10 mM CaCl2, 100 μM thiopeptolide substrate, and 1 mM 5,5′-dithio-bis-(2-nitro-benzoic acid) (DTNB). The thiopeptolide substrate concentration may be varied, for example from 10 to 800 μM to obtain Km and Kcat values. The change in absorbance at 405 nm is monitored on a Thermo Max microplate reader (molecular Devices, Menlo Park, Calif.) at room temperature (22° C.). The calculation of the amount of hydrolysis of the thiopeptolide substrate is based on E412=13600 M^−1 cm^−1 for the DTNB-derived product 3-carboxy-4-nitrothiophenoxide. Assays are carried out with and without matrix metalloproteinase inhibitor compounds, and the amount of hydrolysis is compared for a determination of inhibitory activity of the test compounds.
(§2) Test compounds are evaluated at various concentrations in order to determine their respective IC50 values, the micromolar concentration of compound required to cause a 50% inhibition of catalytic activity of the respective enzyme.
It should be appreciated that the assay buffer used with MMP-3CD was 50 mM N-morpholinoethane sulfonate (“MES”) at pH 6.0 rather than the HEPES buffer at pH 7.0 described above.
(§3) Test compounds can be evaluated according to Biological Method 1 at various concentrations in order to determine their respective IC50 values, typically the micromolar concentration of compound required to cause a 50% inhibition of the hydrolytic activity of the respective enzyme.
(§4) Some representative compounds of Formula I have been evaluated according to Biological Method 1 for their ability to inhibit MMP-13 and other MMP enzymes, including MMP-1, MMP-2, MMP-3, MMP-7, MMP-8, MMP-9, MMP-12, MMP14, and MMP-17. Inhibitor activity versus other MMPs with the compounds may be determined using, for example, MMP-1FL, which refers to full length interstitial collagenase; MMP-2FL, which refers to full length Gelatinase A; MMP-3CD, which refers to the catalytic domain of stromelysin; MMP-7FL, which refers to full length matrilysin; MMP-9FL, which refers to full length Gelatinase B; MMP-13CD, which refers to the catalytic domain of collagenase 3; and MMP-14CD, which refers to the catalytic domain of MMP-14.
(§5) The method of Biological Method 1, except thiopeptolide substrate is replaced with a fluorigenic peptide such as Fluorigenic peptide-1.
(§6) Shown below in Table 1 are the inhibition of MMP-13 catalytic domain, expressed as IC50's, for the compounds of Compound Examples A1 to A8, B1 to B4, and C1 in the column labelled “MMP-13CD IC50 (μM)”.

[2] = target: T1, MMP-13 catalytic domain (MMP-13CD) (Homo sapiens, UniProt P45452); assay: MMP-13 catalytic domain inhibition (Biological Methods 1, 2, or 5)
T1 construct: particularly MMP-13 catalytic domain (“MMP-13CD”)
Experimental: as §1, §2, §3, §4, §5
Fluorigenic peptide-1 substrate based assay for identifying compounds of Formula I as allosteric inhibitors of MMP-13:
• 50 mM HEPES buffer (pH 7.0) • 10 mM CaCl2 • 10 μM fluorigenic peptide-1 (“FP1”) substrate • 0 or 15 mM acetohydroxamic acid (AcNHOH)=1 Kd • 2% DMSO (with or without inhibitor test compound) • 0.5 nM MMP-13CD enzyme Stock Solutions: • 1) 10× assay buffer: 500 mM HEPES buffer (pH 7.0) plus 100 mM CaCl2 • 2) 10 mM FP1 substrate: (Mca)-Pro-Leu-Gly-Leu-(Dnp)-Dpa-Ala-Arg-NH2 (Bachem, M-1895; “A novel coumarin-labeled peptide for sensitive continuous assays of the matrix metalloproteinases,” Knight C. G., Willenbrock F., and Murphy, G., FEBS Lett., 1992;296:263-266). Is prepared 10 mM stock by dissolving 5 mg FP1 in 0.457 mL DMSO. • 3) 3 M AcNHOH: Is prepared by adding 4 mL H2O and 1 mL 10× assay buffer to 2.25 g AcNHOH (Aldrich 15,903-4). Adjusting pH to 7.0 with NaOH. Diluting volume to 10 mL with H2O. Final solution will contain 3 M AcNHOH, 50 mM HEPES buffer (pH 7.0), and 10 mM CaCl2. • 4) AcNHOH dilution buffer: 50 mM HEPES buffer (pH 7.0) plus 10 mM CaCl2 • 5) MMP-13CD enzyme: Stock concentration=250 nM. • 6) Enzyme dilution buffer: 50 mM HEPES buffer (pH 7.0), 10 mM CaCl2, and 0.005% BRU 35 detergent (Calbiochem 203728; Protein Grade, 10%) Procedure (For One 96-well Microplate): • A. Prepared assay mixture: […]

MMP-17CD = target: T2, MMP-17CD (Homo sapiens, UniProt Q9ULZ9); assay: MMP-17 catalytic domain inhibition (Biological Methods 1, 2, or 5)
T2 construct: MMP-17 catalytic domain (“MMP-17CD”)
T2 sequence (Q9ULZ9 126-295 limits assumed): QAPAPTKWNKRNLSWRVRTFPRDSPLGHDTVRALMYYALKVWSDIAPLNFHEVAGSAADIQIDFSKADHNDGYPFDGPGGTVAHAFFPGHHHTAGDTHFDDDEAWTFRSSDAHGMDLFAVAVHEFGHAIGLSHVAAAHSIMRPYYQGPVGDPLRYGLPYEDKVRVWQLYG
Experimental: as §1, §2, §3, §4, §5, §6

[3] = target: T3, MMP-1FL (full length interstitial collagenase) (Homo sapiens, UniProt P03956); assay: MMP-1 full-length inhibition (Biological Methods 1, 2, or 5)
T3 sequence (P03956 100-469): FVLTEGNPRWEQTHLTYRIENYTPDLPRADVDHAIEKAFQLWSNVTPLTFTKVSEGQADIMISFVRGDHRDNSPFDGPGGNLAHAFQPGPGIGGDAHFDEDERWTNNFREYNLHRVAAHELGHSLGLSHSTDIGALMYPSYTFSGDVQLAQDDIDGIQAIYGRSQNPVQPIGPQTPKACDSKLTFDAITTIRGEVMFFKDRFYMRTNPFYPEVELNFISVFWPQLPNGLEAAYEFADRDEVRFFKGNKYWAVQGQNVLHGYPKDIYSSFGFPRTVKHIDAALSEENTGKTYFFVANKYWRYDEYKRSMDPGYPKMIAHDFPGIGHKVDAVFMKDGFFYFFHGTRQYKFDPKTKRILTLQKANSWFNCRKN
Experimental: (§7) Thiopeptolide substrates show virtually no decomposition or hydrolysis at or below neutral pH in the absence of a matrix metalloproteinase enzyme. A typical thiopeptolide substrate commonly utilized for assays is Ac-Pro-Leu-Gly-thioester-Leu-Leu-Gly-OEt. A 100 μL assay mixture will contain a suitable amount of the MMP enzyme such as an amount described in Ye Qi-Zhuang, et al., 1996, supra, 50 mM of N-2-hydroxyethylpiperazine-N′-2-ethanesulfonic acid buffer (“HEPES,” pH 7.0), 10 mM CaCl2, 100 μM thiopeptolide substrate, and 1 mM 5,5′-dithio-bis-(2-nitro-benzoic acid) (DTNB). The thiopeptolide substrate concentration may be varied, for example from 10 to 800 μM to obtain Km and Kcat values. The change in absorbance at 405 nm is monitored on a Thermo Max microplate reader (molecular Devices, Menlo Park, Calif.) at room temperature (22° C.). The calculation of the amount of hydrolysis of the thiopeptolide substrate is based on E412=13600 M^−1 cm^−1 for the DTNB-derived product 3-carboxy-4-nitrothiophenoxide. […]
as §4, with “MMP-14. […]” for “MMP-14.”
as §6

MMP-8FL = target: T4, MMP-8FL (Homo sapiens, UniProt P22894); assay: MMP-8 full-length inhibition (Biological Methods 1, 2, or 5)
T4 construct: MMP-8 full-length
T4 sequence (P22894 101-467): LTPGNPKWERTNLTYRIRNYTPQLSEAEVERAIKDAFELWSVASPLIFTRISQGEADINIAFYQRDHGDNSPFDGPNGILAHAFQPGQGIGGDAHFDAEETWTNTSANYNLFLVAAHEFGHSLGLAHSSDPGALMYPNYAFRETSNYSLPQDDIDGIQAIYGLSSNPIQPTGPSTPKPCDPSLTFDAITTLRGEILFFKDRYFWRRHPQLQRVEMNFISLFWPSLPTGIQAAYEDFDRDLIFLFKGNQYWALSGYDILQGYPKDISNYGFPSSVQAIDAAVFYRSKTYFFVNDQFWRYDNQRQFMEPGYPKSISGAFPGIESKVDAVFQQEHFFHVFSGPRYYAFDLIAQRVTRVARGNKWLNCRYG
Experimental: as §1, §2, §3, §4, §5, §6

[4] = target: MMP-14CD (catalytic domain of MMP-14) (Homo sapiens, UniProt P50281); assay: MMP-14 catalytic domain inhibition (Biological Methods 1, 2, or 5)
Experimental: as §1, §2, §3, §4, §5, §6

[5] = target: T5, MMP-7FL (full length matrilysin) (Homo sapiens, UniProt P09237); assay: MMP-7 full-length inhibition (Biological Methods 1, 2, or 5)
T5 sequence (P09237 95-267): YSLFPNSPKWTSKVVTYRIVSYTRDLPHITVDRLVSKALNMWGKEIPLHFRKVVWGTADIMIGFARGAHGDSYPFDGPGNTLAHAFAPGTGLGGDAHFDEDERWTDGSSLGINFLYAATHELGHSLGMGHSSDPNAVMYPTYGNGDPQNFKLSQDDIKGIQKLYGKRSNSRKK
Experimental: as §7
as §4, with “MMP-14. […]” for “MMP-14.”
as §6

[6] = target: MMP-9FL (full length Gelatinase B) (Homo sapiens, UniProt P14780); assay: MMP-9 full-length inhibition (Biological Methods 1, 2, or 5)
Chain of MMP-9FL (full length Gelatinase B) (P14780 94-707): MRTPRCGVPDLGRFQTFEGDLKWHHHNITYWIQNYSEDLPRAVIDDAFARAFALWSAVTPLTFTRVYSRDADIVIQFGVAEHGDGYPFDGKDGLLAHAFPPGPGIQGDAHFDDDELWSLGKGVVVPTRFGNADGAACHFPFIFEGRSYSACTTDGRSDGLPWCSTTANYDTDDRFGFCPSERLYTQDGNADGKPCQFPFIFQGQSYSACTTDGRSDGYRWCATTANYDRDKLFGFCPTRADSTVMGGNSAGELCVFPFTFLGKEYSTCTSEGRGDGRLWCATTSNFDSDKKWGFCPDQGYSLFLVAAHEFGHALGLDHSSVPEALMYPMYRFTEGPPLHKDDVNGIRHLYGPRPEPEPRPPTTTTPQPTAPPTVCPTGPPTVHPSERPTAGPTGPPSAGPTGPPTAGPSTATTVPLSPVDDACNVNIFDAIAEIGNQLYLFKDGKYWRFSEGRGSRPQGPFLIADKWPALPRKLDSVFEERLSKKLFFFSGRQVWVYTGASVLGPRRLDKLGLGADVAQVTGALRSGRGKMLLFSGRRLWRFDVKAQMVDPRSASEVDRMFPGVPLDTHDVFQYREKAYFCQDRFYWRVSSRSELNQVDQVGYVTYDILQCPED
Experimental: as §1, §2, §3, §4, §5, §6

MMP-12CD = target: T6, MMP-12CD (Homo sapiens, UniProt P39900); assay: MMP-12 catalytic domain inhibition (Biological Methods 1, 2, or 5)
T6 construct: MMP-12 catalytic domain (“MMP-12CD”)
T6 sequence (P39900 106-263 limits assumed): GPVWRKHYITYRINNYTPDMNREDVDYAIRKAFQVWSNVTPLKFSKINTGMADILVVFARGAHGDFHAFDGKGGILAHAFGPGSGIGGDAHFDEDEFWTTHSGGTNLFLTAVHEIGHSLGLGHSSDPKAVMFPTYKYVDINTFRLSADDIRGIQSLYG
Experimental: as §1, §2, §3, §4, §5, §6

Chain of MMP-3CD (catalytic domain of stromelysin) (P08254 100-272 limits assumed): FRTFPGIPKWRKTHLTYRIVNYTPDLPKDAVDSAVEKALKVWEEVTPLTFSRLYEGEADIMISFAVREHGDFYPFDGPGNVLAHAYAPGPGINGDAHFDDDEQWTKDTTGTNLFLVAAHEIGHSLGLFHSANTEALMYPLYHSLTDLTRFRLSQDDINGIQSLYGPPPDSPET

pIC50 [1]	pIC50 [2]	pIC50 (MMP-17CD)	pIC50 [3]	pIC50 (MMP-8FL)	pIC50 [4]	pIC50 [5]	pIC50 [6]	pIC50 (MMP-12CD)	Structure (SMILES)
< 4.00	7.28	< 4.00	< 4.00	< 4.00	< 4.00	< 4.00			COc1cccc(CC(=O)Nc2cc3c(=O)n(Cc4ccc(C(=O)O)cc4)cnc3cc2F)c1 [A2]
< 4.00	7.44	< 4.00	< 4.00	< 4.00	< 4.52	< 4.00	< 4.00		O=C(Cc1ccc(F)cc1)Nc1ccc2ncn(Cc3ccc(C(=O)O)cc3)c(=O)c2c1 [A4]
< 4.00	6.60	< 4.00	< 4.00	< 4.00	< 4.52	< 4.00	< 4.00		O=C(Cc1cccc(F)c1)Nc1ccc2ncn(Cc3ccc(C(=O)O)cc3)c(=O)c2c1 [A5]
	8.28								COc1ccc(CC(=O)Nc2cc3c(=O)n(Cc4ccc(C(=O)O)cc4)cnc3cc2F)cc1 [A6]
	7.00								Cc1ccc(CC(=O)Nc2cc3c(=O)n(Cc4ccc(C(=O)O)cc4)cnc3cc2F)cc1 [A7]
	7.68								O=C(Cc1ccc(O)cc1)Nc1cc2c(=O)n(Cc3ccc(C(=O)O)cc3)cnc2cc1F [A8]
< 4.19	7.89	< 4.52		< 4.52	< 4.52		< 4.52	< 4.52	COc1ccc(CC(=O)Nc2ccc3ccn(Cc4ccc(C(=O)O)cc4)c(=O)c3c2)cc1 [B2]
< 4.19	6.53	< 4.52		< 4.52	< 4.52		< 4.52	< 4.52	O=C(Cc1cccc(F)c1)Nc1ccc2ccn(Cc3ccc(C(=O)O)cc3)c(=O)c2c1 [B3]
< 4.19	7.32	< 4.52		< 4.52	< 4.52		< 4.52	< 4.52	O=C(Cc1ccc(F)cc1)Nc1ccc2ccn(Cc3ccc(C(=O)O)cc3)c(=O)c2c1 [B4]
< 4.19	7.42	< 4.52		< 4.52	< 4.52		< 4.52	< 4.52	COc1cccc(CC(=O)Nc2ccc3ncn(Cc4ccc(C(=O)O)cc4)c(=O)c3c2)c1 [Compound Example A1, 4-{6-[2-(3-Methoxy-phenyl)-acetylamino]-4-oxo-4H-quinazolin-3-ylmethyl}-benzoic acid]
< 4.19	7.28	< 4.52		< 4.52	< 4.52		< 4.52	< 4.52	COc1cccc(CC(=O)Nc2ccc3ccn(Cc4ccc(C(=O)O)cc4)c(=O)c3c2)c1 [Compound Example B1, 4-{7-[2-(3-Methoxy-phenyl)-acetylamino]-1-oxo-1H-isoquinolin-2-ylmethyl}-benzoic acid]
